Assay results published in PMC12766724, “Synthesis, Anthelmintic Activity, and Mechanism of Action of 5‑Aryl‑1H‑indoles” (Journal of Agricultural and Food Chemistry, 2025).

Key:
[1] = tested on: age unsynchronized Ditylenchus destructor; test: Motility on WMicrotracker ONE; format: in vivo
In short: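 Age-unsynchronized populations of Ditylenchus destructor were maintained following a previously described protocol. Their motility was measured on the WMicrotracker ONE platform using previously published methods. The instrument scores the activity of small animals by counting how often infrared light microbeams passing through the wells of a microtiter plate are interrupted. Activity was recorded before treatment and during exposure to compounds.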

xL3 H. contortus = test: Motility on WMicrotracker ONE; format: in vivo; conditions: 48 h; for reduction of movement rates: 50 µM
Description: H. contortus L3 were obtained by culturing feces collected from experimentally infected sheep (located in the facilities of the Instituto de Ganadera de Montaa, Leon, Spain) in aerated and humidified closed containers, which were placed in a climatic chamber at 28 °C for 5 days. Larvae were recovered by immersing the feces in tap water for 5 h to stimulate migration. The suspension was then filtered through a 20 μm sieve. Subsequently, larvae were collected using a Baermann apparatus with a 30 μm mesh overnight at 23 °C. Exsheathment of L3 larvae was performed by incubating them in 0.1% (v/v) sodium hypochlorite for 1 h at room temperature on a rotator, followed by three washes with tap water to remove residual bleach.
The effect of compounds on motility of H. contortus, D. destructor, and H. schachtii was evaluated using the WMicrotracker ONE platform according to previously published protocols. ,
We mostly focused on the three derivatives containing a halogen substitution in the 4-position of the phenyl ring, namely, i-19, i-20, and i-21. An initial experiment was also conducted with a representative compound with an aliphatic chain, namely, i-12, in which we observed only a relatively small effect on the motility of larvae (approximately 30% decrease in motility of nematodes treated with 100 μM of the compound after 48 h in comparison to vehicle-treated worms; Figure S2.7). […] The effect was apparent starting at 3 h and beyond. At 48 h, the latest time point was tested, and the movement rates of nematodes exposed to 50 μM of i-19, i-20, and i-21 were reduced by 76%, 80%, and 82%, respectively.

[2] = tested on: Arabidopsis thaliana Col-0; test: Germination rate and phytotoxicity; format: in vivo; conditions: for average fraction of germinated seeds: 5 DPS; for main root length / plant weight: 10 DPS
In short: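 Sterilized Col-0 seeds sown on 1/2 MS with compounds at 5, 10, 50 and 100 μM in 0.3% DMSO (DMSO mock), grown under 16 h light/8 h dark at 22 °C/20 °C. Germination rate scored at day 5; primary root length and seedling weight after further 5 days.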

Skin fibroblasts (BJ) = test: Resazurin assay, 3-day treatment; format: cell-based, human; conditions: for Average viability (signal intensity relative to control): BJ
[3] = tested on: human keratinocytes (HaCaT); test: Resazurin assay, 3-day treatment; format: cell-based
[4] = 10 µM group, initial (prior to the treatment)
[5] = 50 µM group, initial (prior to the treatment)
[6] = 100 µM group, initial (prior to the treatment)

SMILES | average activity counts [1, 4] | average activity counts ([1]; 10 µM, 48 h) | average activity counts ([1]; 10 µM, 72 h) | average activity counts [1, 5] | average activity counts ([1]; 50 µM, 48 h) | average activity counts ([1]; 50 µM, 72 h) | average activity counts [1, 6] | average activity counts ([1]; 100 µM, 48 h) | average activity counts ([1]; 100 µM, 72 h) | average fraction of germinated seeds ([2]; 5 µM) | main root length ([2]; 5 µM) [mm] | plant weight ([2]; 5 µM) [mg] | average fraction of germinated seeds ([2]; 10 µM) | main root length ([2]; 10 µM) [mm] | plant weight ([2]; 10 µM) [mg] | average fraction of germinated seeds ([2]; 50 µM) | main root length ([2]; 50 µM) [mm] | plant weight ([2]; 50 µM) [mg] | Average viability (signal intensity relative to control) (Skin fibroblasts (BJ); 10 µM) | Average viability (signal intensity relative to control) (Skin fibroblasts (BJ); 20 µM) | also measured
CCCOc1cccc(-c2ccc3[nH]ccc3c2)c1 [i-12] | 220 | 197 | 218 | 201 | 186 | 202 | 235 | 207 | 202 | 0.96 | 37.25 | 32.51 | 0.93 | 38.66 | 34.91 | 0.93 | 35.82 | 27.55 | 0.96 ± 0.01 | 1.04 ± 0.05 | decrease in motility in comparison to vehicle-treated worms (xL3 H. contortus; 100 µM): approximately 30%; Average viability (signal intensity relative to control) (Skin fibroblasts (BJ); 40 µM): 0.96 ± 0.03; Average viability (signal intensity relative to control) ([3]; 10 µM): 1.06 ± 0.14; Average viability (signal intensity relative to control) ([3]; 20 µM): 1.09 ± 0.13; Average viability (signal intensity relative to control) ([3]; 40 µM): 1.06 ± 0.09
CCCOc1ccc(-c2ccc3[nH]ccc3c2)cc1 [i-13] | 204 | 200 | 207 | 221 | 211 | 219 | 239 | 211 | 228 | 0.98 | 40.24 | 37.8 | 0.93 | 39.42 | 36.95 | 0.91 | 36.26 | 26.29 | 0.97 ± 0.01 | 1 ± 0.05 | Average viability (signal intensity relative to control) (Skin fibroblasts (BJ); 40 µM): 0.98 ± 0.03; Average viability (signal intensity relative to control) ([3]; 10 µM): 0.97 ± 0.01; Average viability (signal intensity relative to control) ([3]; 20 µM): 0.98 ± 0.02; Average viability (signal intensity relative to control) ([3]; 40 µM): 0.91 ± 0.04
Clc1ccc(-c2ccc3[nH]ccc3c2)cc1 [i-19] | 226 | 227 | 232 | 239 | 85 | 67 | 233 | 113 | 88 | 0.93 | 38.83 | 32.28 | 0.96 | 37.74 | 30.72 | 0.97 | 33.27 | 24.85 | 0.98 ± 0.02 | 1.02 ± 0.06 | decrease of mean activity counts ([1]; 100 µM, 72 h): 62%; reduction of movement rates (xL3 H. contortus): 76%; average fraction of germinated seeds ([2]; 100 µM): 0.93; main root length ([2]; 100 µM): 19.96 mm; plant weight ([2]; 100 µM): 15.22 mg; Average viability (signal intensity relative to control) (Skin fibroblasts (BJ); 40 µM): 1 ± 0.03; effect on the viability of fibroblasts (Skin fibroblasts (BJ); up to 40 μM): no effect; Average viability (signal intensity relative to control) ([3]; 10 µM): 1.01 ± 0.02; Average viability (signal intensity relative to control) ([3]; 20 µM): 1.02 ± 0.05; Average viability (signal intensity relative to control) ([3]; 40 µM): 0.86 ± 0.1; decrease in viability ([3]; 40 µM): approximately 5%
Fc1ccc(-c2ccc3[nH]ccc3c2)cc1 [i-20] | 215 | 200 | 187 | 223 | 84 | 64 | 226 | 2 | 2 | 0.96 | 39.53 | 30.62 | 0.91 | 34.00 | 27.14 | 0.96 | 31.49 | 24.67 | 0.96 ± 0.01 | 0.98 ± 0.02 | decrease of mean activity counts ([1]; 100 µM, 72 h): 99%; reduction of movement rates (xL3 H. contortus): 80%; average fraction of germinated seeds ([2]; 100 µM): 0.95; main root length ([2]; 100 µM): 25.82 mm; plant weight ([2]; 100 µM): 16.94 mg; Average viability (signal intensity relative to control) (Skin fibroblasts (BJ); 40 µM): 0.96 ± 0.03; Average viability (signal intensity relative to control) ([3]; 10 µM): 0.97 ± 0.01; Average viability (signal intensity relative to control) ([3]; 20 µM): 0.99 ± 0.02; Average viability (signal intensity relative to control) ([3]; 40 µM): 0.94 ± 0.02
FC(F)(F)Oc1ccc(-c2ccc3[nH]ccc3c2)cc1 [i-21] | 227 | 220 | 183 | 223 | 172 | 139 | 221 | 158 | 94 | 0.98 | 41.56 | 34.37 | 1.00 | 42.21 | 36.56 | 1.00 | 35.82 | 24.65 | 0.94 ± 0.02 | 0.96 ± 0.04 | decrease of mean activity counts ([1]; 100 µM, 72 h): 57%; reduction of movement rates (xL3 H. contortus): 82%; average fraction of germinated seeds ([2]; 100 µM): 0.96; main root length ([2]; 100 µM): 30.90 mm; plant weight ([2]; 100 µM): 21.97 mg; Average viability (signal intensity relative to control) (Skin fibroblasts (BJ); 40 µM): 0.87 ± 0.03; Average viability (signal intensity relative to control) ([3]; 10 µM): 0.96 ± 0.02; Average viability (signal intensity relative to control) ([3]; 20 µM): 0.96 ± 0.04; Average viability (signal intensity relative to control) ([3]; 40 µM): 0.74 ± 0.11
